# Settings: buffer; pH 7.4; 200.0 µM
row,SMILES,solubility kinetic [µg/mL]
1,COc1ccc(CC(=O)Nc2ccc(S(=O)(=O)N3CCCC3)cc2)cc1OC,> 60.7
2,C=CCOC(=O)Cn1cnc2c(sc3nc(C)cc(C)c32)c1=O,3.2
3,Cc1ccc(OCc2ccc([N+](=O)[O-])cc2)c([N+](=O)[O-])n1,1.1
4,COc1ccc(C(=O)Nc2ccccc2C(=O)Nc2ccc(C(=O)O)cc2)cc1,> 58.6
5,CC(C)(C)c1ccc(COn2ccnc2)cc1,27.1
6,CCOc1cccc2cc(C(=O)N3CC(C)OC(C)C3)c(=O)oc12 (stereo not given),> 49.7
7,CCOC(=O)/C(=C/Nc1ccc(F)cc1)[N+](=O)[O-],33.9
8,O=C(Cc1ccc([N+](=O)[O-])cc1)Nc1cccnc1,> 38.6
9,CCNS(=O)(=O)c1ccc(NC(=O)Nc2ccc3c(c2)OCO3)cc1,12.1
10,CCN(CC)c1ccc(C=Nc2cccnc2Cl)c(O)c1,33.3
11,O=C(Cc1ccc(F)cc1)Nc1ccccc1N1CCCC1,34.1
12,COCCCNC(=S)N/N=C/c1ccc(O)cc1,> 40.1
13,O=C(NCCC1CC1(Cl)Cl)c1ccc([N+](=O)[O-])cc1 (stereo not given),36.9
14,CC1(C)CC(=O)C=C(Nc2ccc3c(c2)CCC3)C1,35.8
15,COc1ccccc1NS(=O)(=O)c1cc(NC(=O)c2ccccc2[N+](=O)[O-])ccc1N1CCOCC1,4.4
16,O=C(Nc1nccs1)[C@@H]1CCCN1C(=O)c1cccs1,30.6
17,CC(C)CCOc1cccc(OCC(=O)Nc2ccncc2)c1,27.7
18,CCCN(CC(=O)Nc1cc(Cl)ccc1Cl)C(=O)/C=C/c1cc(OC)ccc1OC,5.1
19,CCN(C(=O)COC(=O)c1cccnc1)c1cccc2ccccc12,> 50.2
20,COc1ccc(-c2cc(C(=O)Nc3ccc(F)cc3F)no2)cc1,< 0.4
21,CC(Cc1ccccc1)NC(=O)Cc1ccc([N+](=O)[O-])cc1 (stereo not given),22.6
22,O=C(NC(=S)Nc1ccccc1OC(F)F)c1ccc2c(c1)OCO2,4.4
23,Cc1cccc(NC(=O)CCc2ccccc2)c1C,11.8
24,Cc1ccc(C(=O)NCCn2ccc3ccccc32)cc1[N+](=O)[O-],3.9
25,Cc1c(Cl)cccc1NC(=O)C1CCN(c2cnccn2)CC1,2.1

row,SMILES,solubility kinetic [µg/mL]
1,CC(=O)N(CCC1(C(C)C)CCOC(C)(C)C1)C(C)c1cccs1 (stereo not given),51.1
2,Cc1ccc2nc(SCC(=O)c3ccc(O)cc3O)[nH]c2c1,6.4
3,COc1ccc(-n2c(C)cc3cc(OC(C)=O)ccc32)cc1,0.7
4,O=S1(=O)N=C(c2ccccc2)c2ccccc21,34.7
5,S=C(NCCc1ccccn1)Nc1cc(Cl)cc(Cl)c1,19
6,O=C(O)c1cccc(S(=O)(=O)Nc2cccc3ccccc23)c1,> 49.1
7,CC1(CCc2ccccc2)NC(=O)N(CC(=O)Nc2c(F)cccc2F)C1=O (stereo not given),> 58.1
8,CCOc1ccc(S(=O)(=O)N2CCN(C(=O)c3ccco3)CC2)cc1,> 54.7
9,Cn1cc(CCC(=O)NCc2ccc(Cl)cc2)c2ccccc21,2.2
10,Cc1ccc[n+](CC(=O)N2CCCc3ccccc32)c1.[Cl-],> 45.4
11,CN1C[C@H](C(=O)N[C@]2(C)O[C@@]3(O)[C@@H]4CCCN4C(=O)[C@H](Cc4ccccc4)N3C2=O)CC2c3cccc4[nH]cc(c34)C[C@H]21.CS(=O)(=O)O (stereo not given in full),62.9
12,Nc1c(C(=O)c2ccccc2)oc2ccc([N+](=O)[O-])cc12,1.3
13,CN1CCc2c(sc(/N=C/c3cc(C(C)(C)C)ccc3O)c2C#N)C1,3.4
14,CC(C)C(NC(=O)c1cccs1)C(=O)NC1CCCCC1 (stereo not given),4.7
15,CC(SCC(=O)O)c1nc2ccccc2[nH]1 (stereo not given),> 35.4
16,NC(=O)c1sc2nc(-c3ccccc3)ccc2c1N,1
17,COc1ccc(Cl)cc1NC(=O)Cn1c(C)csc1=O,18.3
18,Cn1cccc1C(=O)OCC(=O)Nc1ccc2c(c1)OCO2,17.4
19,O=C(C1CCC1)N1CCN(S(=O)(=O)c2ccccc2)CC1,> 46.3
20,O=C(NNC(=S)NC(=O)c1ccc(F)cc1)c1cccnc1,> 47.7
21,O=C(NC(=S)Nc1cccnc1)c1cccc(Br)c1,8.1
22,COc1ccc(CNc2cc(C)nc3ccc(OC)cc23)cc1,37.8
23,CCCc1c(C)nc(SCC(=O)C(C)(C)C)nc1OC(=O)N(C)C,46.8
24,COC(=O)c1ccccc1S(=O)(=O)N1CCn2cccc2C1C (stereo not given),43.2
25,COC(=O)c1cc(C(=O)CC(C)C)c[nH]1,> 31.4

row,SMILES,solubility kinetic [µg/mL]
1,O=C(Nc1ccccc1N1CCN(C(=O)c2ccccc2)CC1)c1ccco1,> 56.3
2,O=C(CN1CCCC1)OCCCC1CCCCC1,17.9
3,CC(C)(C)C(=O)Nc1c(Cl)cccc1OC(F)(F)F,34.2
4,Cc1c(Cl)cccc1NC(=O)CCN1C(=O)NC(C)(C)C1=O,> 48.6
5,CC(C)CC(C(=O)Nc1cccc(O)c1)N1C(=O)c2ccccc2C1=O (stereo not given),> 52.9
6,COc1ccc(NC(=O)CN2C(=O)NC(C)(c3ccc4c(c3)OCCO4)C2=O)cc1S(N)(=O)=O (stereo not given),> 73.6
7,Cn1cc(C(=O)OCC(=O)NC2CCCCC2)c2ccccc21,4.8
8,COc1cccc(/C=C/C(=O)OCC(=O)NCCc2ccccc2)c1,6.7
9,CN(c1cccc(NS(=O)(=O)c2ccccc2)c1)S(C)(=O)=O,> 51.1
10,O=C(Nc1nc2ccccc2[nH]1)c1ccc(Br)o1,15.5
11,Cc1ccc(OCC(=O)NCCNC(=O)c2cccnc2)cc1C,46.7
12,CSc1cccc(NC(=O)CCCNC(=O)c2ccc(Cl)cc2)c1,4.5
13,O=[N+]([O-])c1ccc(NS(=O)(=O)c2cccc3cccnc23)cc1,1.9
14,CSCC(=O)Nc1ccc(F)c(Cl)c1,> 35.1
15,COc1cc(CC(=O)O)c([N+](=O)[O-])cc1OC,> 36.2
16,O=C(/C=C/c1ccco1)NC(=S)Nc1cccc(C(=O)O)c1,> 47.4
17,C=CCNC(=O)c1ccccc1NC(=O)C1CC(=O)N(C(C)C)C1 (stereo not given),> 49.4
18,COc1ccc(C(=O)COc2ccc(C)cc2NC(C)=O)cc1,36.7
19,Cc1ccc(S(=O)(=O)NCCc2ccncc2)cc1[N+](=O)[O-],46.2
20,O=C(c1cccs1)N1CCN(c2ccccc2)CC1,> 40.9
21,O=C(CCc1ccccc1)N/N=C/c1cccc(O)c1,> 40.2
22,CNC(=S)NCCc1ccccc1,25.6
23,Cc1cccc(OCC(=O)Nc2ccc(NC(=O)c3ccco3)cc2)c1,0.6
24,CCCCn1c(CCC(=O)O)nc2cc(S(=O)(=O)N3CCCC3)ccc21,> 56.9

# More lines, now with the values ahead:
row,solubility kinetic [µg/mL],SMILES
1,10.9,C/C(N)=C(/C#N)C(=O)COC(=O)C1CCN(S(=O)(=O)c2cccs2)CC1
2,33.9,CN(C)C(CNC(=O)c1cc(-c2ccco2)nc2ccccc12)c1ccccc1 (stereo not given)
3,34.6,CCn1cnc2c1c(=O)[nH]c(=O)n2Cc1ccccc1
4,1,CCCNC(=O)c1cnc(-c2ccccc2)nc1-c1ccccc1
5,> 48.7,CCN(CC)CC(=O)Nc1ccc(C)cc1C(=O)c1ccccc1
6,> 52.6,Cc1cccc(N2N=C(C(=O)OCC(=O)c3ccccc3)CCC2=O)c1
7,> 50.6,CNC(=O)c1ccccc1Sc1cccc2cccc(C(=O)O)c12
8,0.4,CCOC(=O)c1sc(=NC(=O)c2ccccc2)n(C)c1C
9,1.8,Cc1ccc(CNC(=O)CN(C)S(=O)(=O)c2ccc(F)cc2)cc1
10,35,Nc1ccccc1-n1c(=O)n(Cc2ccccc2F)c(=O)c2[nH]cnc21
11,28.2,CC(C)c1cc(C(=O)O)c2ccccc2n1
12,41.3,Cc1ccc(CNS(=O)(=O)c2c(N)n(C)c(=O)n(C)c2=O)cc1
13,2.1,COc1ccccc1N1CC(C)(C)C(=O)N(C(=O)c2ccc(C)cc2)C1=S
14,2.2,Cc1cc(C)c2[nH]c(C(=O)Nc3ccc4c(c3)OCO4)cc2c1
15,> 52.9,O=C(NCc1ccco1)/C(=C\c1cccs1)NC(=O)c1ccccc1
16,> 47.8,Cc1cc(C(=O)N2CCN(c3ccccc3Cl)CC2)c(C)o1
17,> 39,COCCCNC1CS(=O)(=O)CC1O.Cl (stereo not given)
18,1.2,Cc1cc(NC(=O)c2cc(-c3ccncc3)nc3ccccc23)ccc1Br
19,> 35.5,Clc1cccc(OCCCn2ccnc2)c1
20,39.3,COc1ccc(N2C(=O)Cc3ccccc3C2=O)cc1
21,45.7,Cc1ccc(S(=O)(=O)CCN2CCN(c3ccccc3)CC2)cc1

row,solubility kinetic [µg/mL],SMILES
1,> 67.2,COc1ccc(CCNC(=O)COC(=O)c2ncc(Cl)c(Cl)c2Cl)cc1OC
2,> 41.6,CN(C)CCNC(=S)Nc1ccc(F)c(F)c1F
3,14.8,CCC(=O)N/C(N)=N/c1nc2ccccc2o1
4,> 54.9,CCCN(CC(=O)Nc1cc(Cl)ccc1Cl)C(=O)c1ccccn1
5,45.8,O=C(CN1CCOCC1)Nc1nc2ccc(Cl)cc2s1
6,> 69.7,COc1cc2c(cc1OC)CN(C(=O)c1ccc(Cl)c(S(=O)(=O)N3CCCC3)c1)CC2
7,42.2,COc1ccccc1N1CCN(Cc2ccc(C(=O)O)cc2)CC1
8,> 41.8,COc1ccc(NC(=O)c2cccc(Cl)c2)c[n+]1[O-]
9,4.4,Cc1nc(SCC(N)=O)c(C#N)c(C)c1C
10,39.3,CCN(Cc1cc2ccccc2[nH]c1=O)C(=O)c1cccc([N+](=O)[O-])c1
11,25.8,Cc1cc(N)ccc1-c1cc2ccccc2oc1=O
12,< 0.3,Cc1ccc(NC(=O)c2nsc(Cl)c2Cl)cc1
13,15.2,CCOc1ccc(N(C)S(=O)(=O)c2ccc(C)c(C(=O)N3CCN(Cc4ccc5c(c4)OCO5)CC3)c2)cc1
14,1.8,Cc1ccc(NC(=O)C(=O)Nc2ccc(C)cn2)nc1
15,> 49.7,O=C(Nc1c(-c2ccccc2)nc2ccccn12)c1ccccc1F
16,< 0.2,Cc1cccc(-c2noc(-c3c(C)noc3C)n2)c1
17,12.4,COc1ccc(/C=C/C(=O)OCC(=O)Nc2cccc(S(=O)(=O)NC3=NCCCCC3)c2)cc1
18,3.3,N#Cc1nc(-c2cccc3ccccc23)oc1NCC1CCCO1 (stereo not given)
19,7.3,CCC(=O)N1CCc2cc(S(=O)(=O)N3CCCC3)ccc21
20,> 37.5,NC(=O)C1CCN(c2ncccc2[N+](=O)[O-])CC1
